Data from patent US12714678B2, “Peptides and methods of treating sepsis, atherosclerosis, thrombosis, stroke, heart attack and inflammation” (THE BOARD OF TRUSTEES OF THE UNIVERSITY OF ILLINOIS, priority 2019, dated 2026).
Where a SMILES comes first, the peptide text is derived from it. Bridges are numbered along the chain shown (N, C = ends). Where no end group is shown, it is not given here. [ ]: non-standard residue; d: D form. The star is where a group is joined. hArg = N=C(N)NCCCC[C@H](N)C(=O)O; Myristoyl = CCCCCCCCCCCCCC(=O)*; Mpa = O=C(O)CCS

Legend:
C57BL/6 mice [1] = test: FeCl3-induced mouse carotid artery thrombosis model; type: in vivo; settings: for formation of stable occlusive thrombus / occlusion time vs normal control: 7.5% FeCl3, M3mP6 HLPN 5 or 10 μmol/kg retro-orbital 15 min before, aspirin 4.3 mg/kg oral 2 h, clopidogrel 4 mg/kg oral 2 h, MB2mP6 15 min before
Procedure: The right carotid artery was isolated (34, 37). A MA-0.5SB nanoprobe (Transonic Systems, Ithaca, NY) was hooked to the carotid artery to monitor blood flow with a TS420 flowmeter (Transonic Systems) as previously described (38). After stabilization, carotid arterial thrombosis was induced with 7.5% ferric chloride (FeCl3) (Sigma Aldrich, St. Louis, MO), a filter paper disc (2 mm diameter) soaked with 1.2 μL of 7.5% FeCl3 was placed on top of the artery for 3 minutes, and then removed. M3mP6 HLPN, HLPN of scrambled control peptide, HLPN of a second control peptide carrying AAA mutation or physiological saline solution were injected 15 minutes before procedure retro-orbitally. […] To study the effect of post-injury drug injection on thrombosis development, the filter paper disc soaked with 1.2 μl 3.75% FeCl3 were placed on artery for 2 minutes, and drugs were injected retro-orbitally 3 minutes after removing the filter paper. Blood flow was monitored continuously until 5 minutes after occlusion or for 30 minutes if no occlusion occurred. Time to occlusion was defined as the time between the removal of the filter paper and stable occlusion (no blood flow for 2 minutes).
Eight- to 10-week-old C57BL/6 mice (20-25 g body weight) were anesthetized by isoflurane inhalation. The right carotid artery was isolated. A MA-0.5SB nanoprobe (Transonic Systems, Ithaca, NY) was hooked to the carotid artery to monitor blood flow with a TS420 flowmeter (Transonic Systems) as previously described (29). After stabilization, a filter paper disc (2 mm diameter) soaked with 1.2 μL of 7.5% FeCl3 (Sigma Aldrich, St. Louis, MO) was placed on top of the carotid artery for 3 minutes to induce thrombosis and then removed. MB2mP6 or scrambled control peptide were injected 15 minutes before the procedure retro-orbitally. Blood flow was monitored continuously until 5 minutes after occlusion or for 15 minutes if no occlusion occurred. Time to occlusion was defined as the time between the removal of the filter paper and stable occlusion (no blood flow for 5 minutes).

C57BL/6 mice [2] = test: Tail bleeding time; settings: M3mP6 HLPN 10 μmol/kg; aspirin 4.3 mg/kg; clopidogrel 4 mg/kg; ticagrelor 3 mg/kg; cangrelor 30 μg/kg; MB2mP6
Procedure: M3mP6 was administered via retro-orbital injection 15 minutes prior to procedure.
Tail bleeding time was performed as previously described (21, 39). Eight- to 10-week-old C57BL/6 mice were anesthetized with isoflurane. After cutting 0.5-cm-long segment of the distal tip of the tail, their tails were immersed in 0.15 M NaCl immediately at 37° C. Tail bleeding time was defined as the time between cutting tail and stable cessation of bleeding (no rebleeding within 60s). […] If bleeding persisted at 15 minute time point, bleeding was stopped by application of pressure. Data were analyzed using Mann-Whitney test to compare medians between groups.
Tail bleeding time was performed as previously described (16, 29). Eight- to 10-week-old C57BL/6 mice weighing 20-25 g were anesthetized with isoflurane. After cutting a 0.5-cm-long segment off the distal tip of the tail, their tails were immersed in 0.15 M NaCl immediately at 37° C. Tail bleeding time was defined as the time between cutting the tail and stable cessation of bleeding (no re-bleeding within 60s). […] If bleeding persisted at 15 minutes, bleeding was stopped by application of pressure. Data were analyzed using the Mann-Whitney test to compare medians between groups.

[3] = reference (21); cited from earlier work
[4] = Peptide loading, peptide concentration and dissolution of the nanoparticle/micelle formulation; type: physicochemical; settings: HLPN, or lipid micellar suspension for mP6
From the text: The peptide myr-FEEERL(SEQ ID NO: 25) was modified from the original […] cytoplasmic domain sequence to make it more suitable to form peptide-based nanoparticle, and was formulated to form lipid-stabilized high-loading peptide nanoparticles together with PEG2000-DSPE (Avanti Polar Lipids Inc. Alabaster, AL), L-α-phosphatidylcholine (egg PC, Type XI-E, Sigma-Aldrich, St. Louis, MO) with a peptide to PEG-DSPE to PC molar ratio of 36.8:51.7:11.5 or 50:40:10 (further improved formulation with identical in vivo effect) using thin-film rehydration (21, 31). The size distribution of nanoparticles were determined using dynamic light scattering (DLS) (Malvern, Zetasizer Nano ZS90, Worcestershire, U.K.) as previously described (32). This method uses light scattering to monitor the Brownian motion of the particles. Particle size is presented as volume weighted diameter distribution.

human platelets [5] = test: Human platelet aggregation (lumiaggregometer); type: cell-based; settings: washed human platelets pretreated with peptide
Procedure: (§1) For human subjects, Institutional Review Board approval was obtained from the University of Illinois at Chicago, and informed consent from volunteers was obtained in accordance with the Declaration of Helsinki. Platelets were prepared as previously described (33). Platelet aggregation and adenosine triphosphate (ATP) secretion were measured simultaneously in a lumiaggregometer (Chronolog) at 37° C. with stirring (1000 rpm), as previously described (34).
(§2) To prepare platelet-rich plasma (PRP), whole blood was anticoagulated with 3.8% trisodium citrate. To prepare human platelets, one-seventh volume of ACD was used as anticoagulant. Platelets were washed twice and resuspended in modified Tyrode's buffer as previously described (27). Platelet aggregation and adenosine triphosphate (ATP) secretion were measured simultaneously in a lumiaggregometer (Chronolog) at 37° C. with stirring (1000 rpm) as previously described (28).

human platelets [6] = test: Human platelet granule (ATP) secretion (lumiaggregometer); type: cell-based; settings: for integrin-dependent second wave of ATP/granule secretion induced by U46619 / integrin-independent first wave of ATP/granule secretion induced by U46619: human platelets (Integrilin: mouse and human platelets); for ATP secretion induced by thrombin: washed human platelets pretreated with peptide
Procedure: as §1, §2

| Compound | formation of stable occlusive thrombus / occlusion time vs normal control (C57BL/6 mice [1]) | thrombin-induced platelet aggregation (human platelets [5]) | integrin-dependent second wave of ATP/granule secretion induced by U46619 (human platelets [6]) | integrin-independent first wave of ATP/granule secretion induced by U46619 (human platelets [6]) | ATP secretion induced by thrombin (human platelets [6]) | also measured |
| --- | --- | --- | --- | --- | --- | --- |
| COC(=O)[C@H](c1ccccc1Cl)N1CCc2sccc2C1 [clopidogrel] | moderate but significant delay | – | – | – | – | anti-thrombotic effect compared with M3mP6 HLPN (10 μmol/kg), pre-injury dosing (C57BL/6 mice [1]; clopidogrel 4 mg/kg, ticagrelor 3 mg/kg, aspirin 4.3 mg/kg oral, cangrelor 30 μg/kg retro-orbital, MB2mP6): significantly less effective |
| CCCSc1nc(N[C@@H]2C[C@H]2c2ccc(F)c(F)c2)c2nnn([C@@H]3C[C@H](OCCO)[C@@H](O)[C@H]3O)c2n1 [ticagrelor] | – | – | – | – | – | tail bleeding time vs normal control (C57BL/6 mice [2]): dramatically prolonged |
| myr-FEEERA (Myristoyl-FEEERA) [mP6] | – | potently inhibited | diminished | diminished | significantly inhibited | maximal concentration of peptide in lipid micellar formulation [3]: < 1 mM; maximal peptide content of lipid micellar formulation (mol/mol) [3]: ≤ 4%; peptide concentration in injectable/micellar suspension [4]: 1 mM; peptide loading, of total molar content (mol/mol) [4]: < 4% |
| N=C(N)NCCCC[C@@H]1NC(=O)CCSSC[C@@H](C(N)=O)NC(=O)[C@@H]2CCCN2C(=O)[C@H](Cc2c[nH]c3ccccc23)NC(=O)[C@H](CC(=O)O)NC(=O)CNC1=O [Integrilin, reference compound] ([Mpa][hArg]GDWPC-NH2; disulfide 1-7) | – | – | diminished | significantly enhanced | – | platelet granule secretion, low dose thrombin, integrin antagonist-treated platelets (human platelets [6]; wild type mouse or human platelets): enhanced |
| myr-EEERA (Myristoyl-EEERA) [mP5] | – | partially inhibited | reduced | significantly enhanced | enhanced | – |
| CC(=O)Oc1ccccc1C(=O)O [aspirin] | not significantly different | – | – | – | – | occlusive thrombus formation, high dose aspirin experiment (C57BL/6 mice [1]; aspirin 36 mg/kg i.p. 1 hour prior, M3mP6 HLPN 5 μmol/kg, combination): no significant effect |
